Results on 10 compounds are retold here after patent US4232150A, “Oligosaccharide precursors to substituted O-α-D and O-β-D-multigalactopyranosyl and glucopyranosyl 1→4 and 1→6 galactopyranosyl 1→6α-D-glucopyranoses” (American Cyanamid Company, priority 1979, dated 1980).

What all share (conditions): serial twofold dilution assay; higher well number indicates higher activity
One assay deals with T1, activated human C1 (Homo sapiens, UniProt P09871).
T1 construct: functional test of fluid-phase human C2 destruction in presence of C4
T1 sequence (P09871 16-688): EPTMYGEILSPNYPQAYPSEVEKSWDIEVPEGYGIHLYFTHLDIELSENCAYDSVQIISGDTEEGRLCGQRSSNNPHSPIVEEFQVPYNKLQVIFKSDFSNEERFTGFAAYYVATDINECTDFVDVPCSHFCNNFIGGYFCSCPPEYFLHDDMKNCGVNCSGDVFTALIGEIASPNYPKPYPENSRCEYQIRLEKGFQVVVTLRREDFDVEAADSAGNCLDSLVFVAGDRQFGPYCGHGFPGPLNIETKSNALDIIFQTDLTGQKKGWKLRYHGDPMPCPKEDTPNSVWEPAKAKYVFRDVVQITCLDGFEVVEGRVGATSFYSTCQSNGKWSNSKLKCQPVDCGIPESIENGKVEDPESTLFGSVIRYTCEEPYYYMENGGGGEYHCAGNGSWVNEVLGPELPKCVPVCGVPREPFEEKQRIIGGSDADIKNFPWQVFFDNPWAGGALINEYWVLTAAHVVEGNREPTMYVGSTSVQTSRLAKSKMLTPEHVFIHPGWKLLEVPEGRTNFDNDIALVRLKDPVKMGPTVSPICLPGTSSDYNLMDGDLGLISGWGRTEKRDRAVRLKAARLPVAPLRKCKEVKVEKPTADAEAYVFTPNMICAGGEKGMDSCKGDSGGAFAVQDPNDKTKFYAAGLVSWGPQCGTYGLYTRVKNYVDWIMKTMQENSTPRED
T1 sequence (P00736 18-705 partner): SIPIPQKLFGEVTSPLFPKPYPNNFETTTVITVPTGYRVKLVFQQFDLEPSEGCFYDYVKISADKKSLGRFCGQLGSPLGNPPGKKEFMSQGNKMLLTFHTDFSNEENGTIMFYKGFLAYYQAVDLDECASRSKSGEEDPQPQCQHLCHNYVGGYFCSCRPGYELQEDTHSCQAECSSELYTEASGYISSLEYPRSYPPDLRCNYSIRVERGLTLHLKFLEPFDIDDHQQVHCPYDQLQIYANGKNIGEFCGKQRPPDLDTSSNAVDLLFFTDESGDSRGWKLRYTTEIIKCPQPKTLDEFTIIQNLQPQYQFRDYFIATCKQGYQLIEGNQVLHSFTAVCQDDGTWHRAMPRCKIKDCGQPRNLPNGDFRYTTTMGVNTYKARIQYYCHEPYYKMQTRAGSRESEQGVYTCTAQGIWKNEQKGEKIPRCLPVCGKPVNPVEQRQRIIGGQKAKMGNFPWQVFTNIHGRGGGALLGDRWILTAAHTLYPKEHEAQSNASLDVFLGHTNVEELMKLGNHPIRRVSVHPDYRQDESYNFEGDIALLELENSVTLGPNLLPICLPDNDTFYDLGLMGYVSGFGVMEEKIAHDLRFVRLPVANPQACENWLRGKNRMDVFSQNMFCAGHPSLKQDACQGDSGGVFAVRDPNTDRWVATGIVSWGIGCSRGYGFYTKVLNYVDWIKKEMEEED
T1 sequence (P02745 23-245 partner): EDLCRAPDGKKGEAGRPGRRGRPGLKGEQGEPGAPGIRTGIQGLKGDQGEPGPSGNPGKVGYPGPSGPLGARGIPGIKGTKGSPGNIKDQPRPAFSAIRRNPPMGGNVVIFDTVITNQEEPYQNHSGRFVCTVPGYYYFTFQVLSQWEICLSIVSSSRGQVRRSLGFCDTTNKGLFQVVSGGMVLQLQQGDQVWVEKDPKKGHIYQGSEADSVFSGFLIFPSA
T1 sequence (P02746 28-253 partner): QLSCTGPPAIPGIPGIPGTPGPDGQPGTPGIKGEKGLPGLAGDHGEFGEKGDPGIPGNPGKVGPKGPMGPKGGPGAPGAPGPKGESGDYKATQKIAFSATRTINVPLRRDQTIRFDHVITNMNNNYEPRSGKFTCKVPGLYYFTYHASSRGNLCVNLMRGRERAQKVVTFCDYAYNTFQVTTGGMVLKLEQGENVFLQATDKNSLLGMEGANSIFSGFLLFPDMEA
T1 sequence (P02747 29-245 partner): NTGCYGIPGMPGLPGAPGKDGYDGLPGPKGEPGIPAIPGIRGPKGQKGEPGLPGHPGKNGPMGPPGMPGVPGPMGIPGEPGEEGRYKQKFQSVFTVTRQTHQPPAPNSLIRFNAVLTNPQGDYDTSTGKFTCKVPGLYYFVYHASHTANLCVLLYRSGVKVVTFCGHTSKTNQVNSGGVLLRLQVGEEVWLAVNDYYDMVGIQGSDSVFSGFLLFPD
The experiment in a line: Test Code 026 (C1 inhibitor). Format: biochemical. The source says: (§1) An active inhibitor protects C2 from C1 and C4; (ii) Test Cod3 035 (3-C9 inhibitor)--This test determines the ability of the late components of human complement (C3-C9) to lyse EAC 142 in the presence of appropriate dilutions of the test compound. An active inhibitor protects EAC 142 from lysis by human C3-C9; (iii) Test Code 036 (C-Shunt inhibitor)--In this test human erythrocytes rendered fragile are lysed in autologous serum via the shunt pathway activated by cobra venom factor in the presence of appropriate dilutions of the test compound. Inhibition of the shunt pathway results in failure of lysis; (iv) Forssman Vasculitis Test--Here, the well known complement dependent lesion, Forssman vasculitis, is produced in guinea pigs by intradermal injection of rabbit anti-Forssman antiserum. The lesion is measured in terms of diameter, edema and hemorrhage and the extent to which a combined index of these is inhibited by prior intraperitoneal injection of the test compound at 200 mg/kg is then reported, unless otherwise stated; (v) Forssman Shock Test--Lethal shock is produced in guinea pigs by an i.v. injection of anti-Forssman antiserum and the harmonic mean death time of treated guinea pigs is compared with that of simultaneous controls; (vi) Complement Level Reduction Test--In this test, the above dosed guinea pigs, or others, are bled for serum and the complement level is determined in undiluted serum by the capillary tube method of U.S. Pat. No. 3,876,376 and compared to undosed control guinea pigs; (vii) Cap 50 Test--Here, appropriate amounts of the test compound are added to a pool of guinea pig serum in vitro, after which the undiluted serum capillary tube assay referred to above is run. The concentration of compound inhibiting 50% is reported;
(§2) **Activity in wells, a serial dilution assay; higher well number indicate
(§3) higher activity. The serial dilutions are twofold

Assay [1] deals with late components of human complement (C3-C9). The experiment in a line: Test Code 035 (C3-C9 inhibitor; C-Late), lysis of EAC 142. Format: cell-based.
Description: as §1, §2, §3

In assay [2] the test system is shunt pathway activated by cobra venom factor. The experiment in a line: Test Code 036 (C-Shunt inhibitor), lysis of human erythrocytes by cobra venom factor. The format is cell-based.
Description: as §1, §2, §3

Counter-ions that a name gives are not always drawn.

Turning to `O=S(=O)(O)OC[C@H]1O[C@@H](OC[C@H]2O[C@H](OC[C@H]3O[C@H](OS(=O)(=O)O)[C@H](OS(=O)(=O)O)[C@@H](OS(=O)(=O)O)[C@@H]3OS(=O)(=O)O)[C@H](OS(=O)(=O)O)[C@@H](OS(=O)(=O)O)[C@H]2OS(=O)(=O)O)[C@H](OS(=O)(=O)O)[C@@H](OS(=O)(=O)O)[C@@H]1O[C@H]1O[C@H](COS(=O)(=O)O)[C@@H](O[C@H]2O[C@H](COS(=O)(=O)O)[C@@H](OS(=O)(=O)O)[C@H](OS(=O)(=O)O)[C@H]2OS(=O)(=O)O)[C@H](OS(=O)(=O)O)[C@H]1OS(=O)(=O)O` [(glc →1α,4)2 glc →1β,6 gal →1α,6 heptadecakis (H-sulfate), h] [(Glc 1α,4)2 glc 1β,6 gal 1α,6 glc heptadecakis (H-sulfate) heptadecasodium salt], on activated human C1, the “C1 026* Wells” value is “+9 Wells”. Moreover, the “C-Late 035* Wells” value in assay [1] was “+2 Wells”. In addition, the “Shunt Inhibition 036* Wells” value in assay [2] is “+6 Wells”.

In the case of `O=S(=O)(O)OC[C@H]1O[C@@H](OC[C@H]2O[C@H](OC[C@H]3OC(OS(=O)(=O)O)[C@H](OS(=O)(=O)O)[C@@H](OS(=O)(=O)O)[C@@H]3OS(=O)(=O)O)[C@H](OS(=O)(=O)O)[C@@H](OS(=O)(=O)O)[C@H]2OS(=O)(=O)O)[C@H](OS(=O)(=O)O)[C@@H](OS(=O)(=O)O)[C@@H]1O[C@H]1O[C@H](COS(=O)(=O)O)[C@@H](O[C@H]2O[C@H](COS(=O)(=O)O)[C@@H](O[C@H]3O[C@H](COS(=O)(=O)O)[C@@H](O[C@H]4O[C@H](COS(=O)(=O)O)[C@@H](O[C@H]5O[C@H](COS(=O)(=O)O)[C@@H](O[C@H]6O[C@H](COS(=O)(=O)O)[C@@H](OS(=O)(=O)O)[C@H](OS(=O)(=O)O)[C@H]6OS(=O)(=O)O)[C@H](OS(=O)(=O)O)[C@H]5OS(=O)(=O)O)[C@H](OS(=O)(=O)O)[C@H]4OS(=O)(=O)O)[C@H](OS(=O)(=O)O)[C@H]3OS(=O)(=O)O)[C@H](OS(=O)(=O)O)[C@H]2OS(=O)(=O)O)[C@H](OS(=O)(=O)O)[C@H]1OS(=O)(=O)O` (stereo partly drawn) [(glc →1α,4)6 glc →1β,6 gal →1α,6 glc nonacosakis (H-sulfate)] [(Glc 1α,4)6 glc 1β,6 gal 1α,6 glc nonacosakis (H-sulfate) nonacosasalt with trimethylamine], the “C1 026* Wells” value on activated human C1 is “+10 Wells”. Moreover, in assay [1], the “C-Late 035* Wells” value is recorded as “+1 Wells”. Also, the “Shunt Inhibition 036* Wells” value in assay [2] was “+5 Wells”.

In the case of `O=S(=O)(O)OC[C@H]1O[C@@H](OC[C@H]2O[C@H](OC[C@H]3OC(OS(=O)(=O)O)[C@H](OS(=O)(=O)O)[C@@H](OS(=O)(=O)O)[C@@H]3OS(=O)(=O)O)[C@H](OS(=O)(=O)O)[C@@H](OS(=O)(=O)O)[C@H]2OS(=O)(=O)O)[C@H](OS(=O)(=O)O)[C@@H](OS(=O)(=O)O)[C@@H]1O[C@H]1O[C@H](COS(=O)(=O)O)[C@@H](O[C@H]2O[C@H](COS(=O)(=O)O)[C@@H](O[C@H]3O[C@H](COS(=O)(=O)O)[C@@H](O[C@H]4O[C@H](COS(=O)(=O)O)[C@@H](O[C@H]5O[C@H](COS(=O)(=O)O)[C@@H](O[C@H]6O[C@H](COS(=O)(=O)O)[C@@H](OS(=O)(=O)O)[C@H](OS(=O)(=O)O)[C@H]6OS(=O)(=O)O)[C@H](OS(=O)(=O)O)[C@H]5OS(=O)(=O)O)[C@H](OS(=O)(=O)O)[C@H]4OS(=O)(=O)O)[C@H](OS(=O)(=O)O)[C@H]3OS(=O)(=O)O)[C@H](OS(=O)(=O)O)[C@H]2OS(=O)(=O)O)[C@H](OS(=O)(=O)O)[C@H]1OS(=O)(=O)O` (stereo partly drawn) [(glc →1α,4)6 glc →1β,6 gal →1α,6 nonacosakis (H-sulfate), no] [(Glc 1α,4)6 glc 1β,6 gal 1α,6 glc nonacosakis (H-sulfate) nonacosasodium salt], the “C1 026* Wells” value at activated human C1 was “+9 Wells”. For the same compound, the “C-Late 035* Wells” value in assay [1] is “+3 Wells”. For the same compound, the “Shunt Inhibition 036* Wells” value in assay [2] is recorded as “+5 Wells”.

On to `O=S(=O)(O)OC[C@H]1O[C@@H](OC[C@H]2O[C@H](OC[C@H]3O[C@H](OS(=O)(=O)O)[C@H](OS(=O)(=O)O)[C@@H](OS(=O)(=O)O)[C@@H]3OS(=O)(=O)O)[C@H](OS(=O)(=O)O)[C@@H](OS(=O)(=O)O)[C@H]2OS(=O)(=O)O)[C@H](OS(=O)(=O)O)[C@@H](OS(=O)(=O)O)[C@@H]1O[C@H]1O[C@H](COS(=O)(=O)O)[C@@H](O[C@H]2O[C@H](COS(=O)(=O)O)[C@@H](OS(=O)(=O)O)[C@H](OS(=O)(=O)O)[C@H]2OS(=O)(=O)O)[C@H](OS(=O)(=O)O)[C@H]1OS(=O)(=O)O` [(glc →1α,4) 2 glc →1β,6 gal →1α,6 heptadecakis (H-sulfate), ] [(Glc 1α,4)2 glc 1β,6 gal 1α,6 glc heptadecakis (H-sulfate) heptadecasalt with trimethylamine], for which the “C1 026* Wells” value at activated human C1 is on record as “+9 Wells”. Moreover, the “C-Late 035* Wells” value in assay [1] is recorded as “+1 Wells”.

On to `O=S(=O)(O)OC[C@H]1O[C@H](OC[C@H]2OC(OS(=O)(=O)O)[C@H](OS(=O)(=O)O)[C@@H](OS(=O)(=O)O)[C@@H]2OS(=O)(=O)O)[C@H](OS(=O)(=O)O)[C@@H](OS(=O)(=O)O)[C@H]1OS(=O)(=O)O` (stereo partly drawn) [Gal 1α,6 glc octakis (H-sulfate), octasodium salt], for which the “C1 026* Wells” value at activated human C1 is on record as “+8 Wells”.

As to `O=S(=O)(O)OC[C@H]1O[C@@H](OC[C@H]2O[C@H](OC[C@H]3O[C@H](OS(=O)(=O)O)[C@H](OS(=O)(=O)O)[C@@H](OS(=O)(=O)O)[C@@H]3OS(=O)(=O)O)[C@H](OS(=O)(=O)O)[C@@H](OS(=O)(=O)O)[C@H]2OS(=O)(=O)O)[C@H](OS(=O)(=O)O)[C@@H](OS(=O)(=O)O)[C@H]1OS(=O)(=O)O` [gal →1β,6 gal →1α,6 glc undecakis -sulfate), undecasalt with] [Gal 1β,6 gal 1α,6 glc undecakis (H-sulfate), undecasalt with trimethylamine], on activated human C1, the “C1 026* Wells” value was “+9 Wells”.

In the case of `O=S(=O)(O)OC[C@H]1O[C@@H](OC[C@H]2O[C@H](OC[C@H]3O[C@H](OS(=O)(=O)O)[C@H](OS(=O)(=O)O)[C@@H](OS(=O)(=O)O)[C@@H]3OS(=O)(=O)O)[C@H](OS(=O)(=O)O)[C@@H](OS(=O)(=O)O)[C@H]2OS(=O)(=O)O)[C@H](OS(=O)(=O)O)[C@@H](OS(=O)(=O)O)[C@H]1OS(=O)(=O)O` [gal →1β,6 gal →1α,6 glc undecakis -sulfate), undecasodium sa] [Gal 1β,6 gal 1α,6 glc undecakis (H-sulfate), undecasodium salt], the “C1 026* Wells” value at activated human C1 is reported as “+9 Wells”.

Turning to `O=S(=O)(O)OC[C@H]1O[C@@H](OC[C@H]2O[C@H](OC[C@H]3OC(OS(=O)(=O)O)[C@H](OS(=O)(=O)O)[C@@H](OS(=O)(=O)O)[C@@H]3OS(=O)(=O)O)[C@H](OS(=O)(=O)O)[C@@H](OS(=O)(=O)O)[C@H]2OS(=O)(=O)O)[C@H](OS(=O)(=O)O)[C@@H](OS(=O)(=O)O)[C@@H]1O[C@H]1O[C@H](COS(=O)(=O)O)[C@@H](OS(=O)(=O)O)[C@H](OS(=O)(=O)O)[C@H]1OS(=O)(=O)O` (stereo partly drawn) [glc →1α,4 glc →1β,6 gal →1α,6 glc tetradecakis (H-sulfate), ] [Glc 1α,4 glc 1β,6 gal 1α,6 glc tetradecakis (H-sulfate), tetradecasalt with trimethylamine], the “C-Late 035* Wells” value in assay [1] was “+1 Wells”.

Take `O=S(=O)(O)OC[C@H]1O[C@@H](OC[C@H]2O[C@H](OC[C@H]3O[C@H](OS(=O)(=O)O)[C@H](OS(=O)(=O)O)[C@@H](OS(=O)(=O)O)[C@@H]3OS(=O)(=O)O)[C@H](OS(=O)(=O)O)[C@@H](OS(=O)(=O)O)[C@H]2OS(=O)(=O)O)[C@H](OS(=O)(=O)O)[C@@H](OS(=O)(=O)O)[C@@H]1O[C@@H]1O[C@H](COS(=O)(=O)O)[C@@H](OS(=O)(=O)O)[C@H](OS(=O)(=O)O)[C@H]1OS(=O)(=O)O` [glc →1β,4 glc →1β,6 gal →1α,6 glc tetradecakis (H-sulfate), ] [Glc 1β,4 glc 1β,6 gal 1α,6 glc tetradecakis (H-sulfate), tetradecasodium salt]: on activated human C1, the “C1 026* Wells” value was “+9 Wells”.

For the compound `O=S(=O)(O)OC[C@H]1O[C@@H](OC[C@H]2O[C@H](OC[C@H]3O[C@H](OS(=O)(=O)O)[C@H](OS(=O)(=O)O)[C@@H](OS(=O)(=O)O)[C@@H]3OS(=O)(=O)O)[C@H](OS(=O)(=O)O)[C@@H](OS(=O)(=O)O)[C@H]2OS(=O)(=O)O)[C@H](OS(=O)(=O)O)[C@@H](OS(=O)(=O)O)[C@@H]1O[C@@H]1O[C@H](COS(=O)(=O)O)[C@@H](OS(=O)(=O)O)[C@H](OS(=O)(=O)O)[C@H]1OS(=O)(=O)O` [glc →1β,4 glc →1β,6 gal →1α,6 glc tetradicakis (H-sulfate), ] [Glc 1β,4 glc 1β,6 gal 1α,6 glc tetradecakis (H-sulfate), tetradecasalt with trimethylamine], the “C1 026* Wells” value on activated human C1 is given as “+9 Wells”. The “Shunt Inhibition 036* Wells” value in assay [2] is reported as “+4 Wells”.
